Key:
HCT-116 = assay: Cytotoxicity against human HCT116 cells after 96 hrs by MTT assay; type: functional, cell-based; conditions: HCT-116, 96 h
HT-29 = assay: Cytotoxicity against human HT-29 cells after 96 hrs by MTT assay; type: functional, cell-based; conditions: HT-29, 96 h

CC(=O)N[C@H]1[C@H](O[C@H]2CC[C@]3(C)[C@H]4CC=C5[C@@H]6CC(C)(C)CC[C@]6(C(=O)O[C@@H]6O[C@H](CO)[C@@H](O)[C@H](O)[C@H]6O[C@@H]6OC[C@](O)(CO)[C@H]6O)[C@H](O)[C@H](O)[C@@]5(C)[C@]4(C)CC[C@H]3C2(C)C)O[C@H](CO[C@@H]2OC[C@H](O)[C@H](O)[C@H]2O)[C@@H](O)[C@@H]1O[C@@H]1OC[C@@H](O)[C@H](O)[C@H]1O [PURSAETHOSIDE C]
IC50 (HCT-116): > 100 µg/mL | IC50 (HT-29): > 100 µg/mL

CC(=O)N[C@H]1[C@H](O[C@H]2CC[C@]3(C)[C@H]4CC=C5[C@@H]6CC(C)(C)CC[C@]6(C(=O)O[C@@H]6O[C@H](CO)[C@@H](O)[C@H](O)[C@H]6O[C@@H]6OC[C@](O)(CO)[C@H]6O)[C@H](O)C[C@@]5(C)[C@]4(C)CC[C@H]3C2(C)C)O[C@H](CO[C@@H]2OC[C@H](O)[C@H](O)[C@H]2O)[C@@H](O)[C@@H]1O[C@@H]1OC[C@@H](O)[C@H](O)[C@H]1O [PURSAETHOSIDE B]
IC50 (HCT-116): > 100 µg/mL | IC50 (HT-29): > 100 µg/mL

From ChEMBL document CHEMBL1141769, “Pursaethosides A-E, triterpene saponins from Entada pursaetha” (J Nat Prod, 2005)
